Measurements published in PubChem BioAssay AID248 (DTP/NCI, 2004).
Several values for one entry are separate records, joined by “and”; a condition that tells them apart may be missing. Equal entries are not always repeated. Toxic doses and inconclusive results are not listed. Cut-off read from the data, not from the text of the source: active = T/C of 150% or more; inactive = T/C below 125%.

Test system: L1210 leukemia ip in BDF1 mice, survival T/C
Test: NCI In Vivo Anticancer Drug Screen. Data for tumor model L1210 Leukemia (intraperitoneal) in B6D2F1 (BDF1) mice
Conditions: endpoint: mean survival time, higher = longer survival
Outline: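 In this screen, tumor-bearing mice given compound are compared to those given vehicle, and their survival values are reported as a treated-to-control quotient.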

[1] = dose: 100.0 mg/kg/injection, schedule: Q01DX009 (ip), vehicle: saline with Tween-80
[2] = dose: 100.0 mg/kg/injection, schedule: Q04DX003 (ip), vehicle: saline with Tween-80
[3] = dose: 200.0 mg/kg/injection, schedule: Q04DX003 (ip), vehicle: saline with Tween-80
[4] = dose: 100.0 mg/kg/injection, schedule: Q01DX001 (ip), vehicle: saline
[5] = dose: 200.0 mg/kg/injection, schedule: Q01DX001 (ip), vehicle: saline
[6] = dose: 400.0 mg/kg/injection, schedule: Q01DX001 (ip), vehicle: saline
[7] = dose: 12.5 mg/kg/injection, schedule: Q04DX003 (ip), vehicle: saline
[8] = dose: 25.0 mg/kg/injection, schedule: Q04DX003 (ip), vehicle: saline
[9] = dose: 100.0 mg/kg/injection, schedule: Q01DX001 (ip), vehicle: carboxymethylcellulose (CMC)
[10] = dose: 200.0 mg/kg/injection, schedule: Q01DX001 (ip), vehicle: carboxymethylcellulose (CMC)
[11] = dose: 100.0 mg/kg/injection, schedule: Q01DX001 (ip), vehicle: Klucel (hydroxypropylcellulose) (HPC)
[12] = dose: 200.0 mg/kg/injection, schedule: Q01DX001 (ip), vehicle: Klucel (hydroxypropylcellulose) (HPC)
[13] = dose: 400.0 mg/kg/injection, schedule: Q01DX001 (ip), vehicle: Klucel (hydroxypropylcellulose) (HPC)

Measured: T/C

Cc1ccccc1N=C1C(=O)Nc2ccccc21
inactive: dose: 100.0 mg/kg/injection, schedule: Q01DX001 (ip), vehicle: other 115 % of control | dose: 200.0 mg/kg/injection, schedule: Q01DX001 (ip), vehicle: other 91 % of control | dose: 400.0 mg/kg/injection, schedule: Q01DX001 (ip), vehicle: other 107 % of control

c1ccc(-c2cnc(-c3ccccc3)cn2)cc1
inactive: dose: 25.6 mg/kg/injection, schedule: Q04DX002 (ip), vehicle: saline with Tween-80 112 % of control | dose: 64.0 mg/kg/injection, schedule: Q04DX002 (ip), vehicle: saline with Tween-80 96 % of control | dose: 160.0 mg/kg/injection, schedule: Q04DX002 (ip), vehicle: saline with Tween-80 93 % of control | dose: 400.0 mg/kg/injection, schedule: Q04DX002 (ip), vehicle: saline with Tween-80 104 % of control

CC(C)C1=CC23CCC4C(C)(C(=O)Cl)CCCC4(C)C2CC1C1(Br)C(=O)OC(=O)C31Br (stereo not given)
inactive: dose: 75.0 mg/kg/injection, schedule: Q01DX001 (ip), vehicle: other 93 % of control | dose: 150.0 mg/kg/injection, schedule: Q01DX001 (ip), vehicle: other 88 % of control | dose: 300.0 mg/kg/injection, schedule: Q01DX001 (ip), vehicle: other 91 % of control

O=C1OC(=O)C2C1C1CCC2(C2OCCO2)O1 (stereo not given)
inactive: dose: 100.0 mg/kg/injection, schedule: Q04DX002 (ip), vehicle: Klucel (hydroxypropylcellulose) (HPC) 93 % of control | dose: 200.0 mg/kg/injection, schedule: Q04DX002 (ip), vehicle: Klucel (hydroxypropylcellulose) (HPC) 101 % of control | dose: 400.0 mg/kg/injection, schedule: Q04DX002 (ip), vehicle: Klucel (hydroxypropylcellulose) (HPC) 101 % of control

CCOC(=O)N/N=C\c1cc(OC)c(OC)c(OC)c1
inactive: dose: 50.0 mg/kg/injection, schedule: Q01DX009 (ip), vehicle: saline with Tween-80 103 % of control | [1] 98 % of control | [2] 102 % of control | [3] 103 % of control

CC1CC(=O)Oc2cc(O)c(O)cc21 (stereo not given)
inactive: [4] 101 % of control | [5] 95 % of control | [6] 95 % of control

[Cl][Ni].[NH-]C(Cc1ccccc1)C(=O)O (stereo not given)
inactive: dose: 6.25 mg/kg/injection, schedule: Q04DX003 (ip), vehicle: saline 98 % of control | [7] 98 % of control | [8] 91 % of control

CSc1nc(N)c2c(=O)c(C(N)=O)cn(C3OC(CO)C(O)C3O)c2n1 (stereo not given)
inactive: dose: 100.0 mg/kg/injection, schedule: Q01DX005 (ip), vehicle: saline 95 % of control | dose: 200.0 mg/kg/injection, schedule: Q01DX005 (ip), vehicle: saline 93 % of control

Cc1ccc(S(=O)(=O)N(SSN(c2ccccc2)S(=O)(=O)c2ccc(C)cc2)c2ccccc2)cc1
inactive: dose: 100.0 mg/kg/injection, schedule: Q04DX002 (ip), vehicle: carboxymethylcellulose (CMC) 95 % of control and 98 % of control | dose: 200.0 mg/kg/injection, schedule: Q04DX002 (ip), vehicle: carboxymethylcellulose (CMC) 95 % of control and 101 % of control | dose: 400.0 mg/kg/injection, schedule: Q04DX002 (ip), vehicle: carboxymethylcellulose (CMC) 95 % of control and 106 % of control

CCOC(=O)C(NC(C)=O)(C(=O)OCC)C(=O)c1ccc(Cl)cc1
inactive: [9] 89 % of control | [10] 94 % of control

CN(C)/N=C/c1cccc[n+]1C
inactive: dose: 6.25 mg/kg/injection, schedule: Q01DX009 (ip), vehicle: saline 102 % of control | dose: 12.5 mg/kg/injection, schedule: Q01DX009 (ip), vehicle: saline 106 % of control | dose: 25.0 mg/kg/injection, schedule: Q01DX009 (ip), vehicle: saline 115 % of control

O=Cc1ccc2cccnc2c1O
inactive: dose: 50.0 mg/kg/injection, schedule: Q01DX001 (ip), vehicle: saline 114 % of control | [4] 108 % of control | [5] 93 % of control

C(=N\N1CCN(/N=C/c2c[nH]c3ccccc23)CC1)/c1c[nH]c2ccccc12
inactive: [4] 94 % of control | [5] 94 % of control | [6] 94 % of control

O=C(N/N=C/c1cc(Cl)ccc1O)C(O)(c1ccccc1)c1ccccc1
inactive: [9] 106 % of control | [10] 97 % of control | dose: 400.0 mg/kg/injection, schedule: Q01DX001 (ip), vehicle: carboxymethylcellulose (CMC) 101 % of control

O=C(NC(=O)C(Cl)Cl)Nc1cccc2c1Cc1ccccc1-2
inactive: dose: 50.0 mg/kg/injection, schedule: Q04DX003 (ip), vehicle: Klucel (hydroxypropylcellulose) (HPC) 105 % of control | [11] 100 % of control | dose: 100.0 mg/kg/injection, schedule: Q01DX009 (ip), vehicle: Klucel (hydroxypropylcellulose) (HPC) 98 % of control | dose: 100.0 mg/kg/injection, schedule: Q04DX003 (ip), vehicle: Klucel (hydroxypropylcellulose) (HPC) 96 % of control and 101 % of control | [12] 89 % of control | dose: 200.0 mg/kg/injection, schedule: Q01DX009 (ip), vehicle: Klucel (hydroxypropylcellulose) (HPC) 93 % of control | dose: 200.0 mg/kg/injection, schedule: Q04DX003 (ip), vehicle: Klucel (hydroxypropylcellulose) (HPC) 100 % of control | [13] 94 % of control | dose: 400.0 mg/kg/injection, schedule: Q01DX009 (ip), vehicle: Klucel (hydroxypropylcellulose) (HPC) 93 % of control | dose: 400.0 mg/kg/injection, schedule: Q04DX003 (ip), vehicle: Klucel (hydroxypropylcellulose) (HPC) 90 % of control and 92 % of control

CCCCCCCCCCCCNC(=O)C[n+]1cccc(C(=O)N(CC)CC)c1
inactive: [7] 92 % of control | [8] 97 % of control | dose: 50.0 mg/kg/injection, schedule: Q04DX003 (ip), vehicle: saline 97 % of control

CCOC(=O)CCC1(C(=O)OC)C(=O)CCCCC/C=C/1C(=O)OC (stereo not given)
inactive: [2] 99 % of control | [3] 101 % of control | dose: 400.0 mg/kg/injection, schedule: Q04DX003 (ip), vehicle: saline with Tween-80 106 % of control

O=P(N(CCCl)CCCl)(N1CCCCC1)N1CCCCC1
inactive: dose: 50.0 mg/kg/injection, schedule: Q01DX Z (ip), vehicle: saline 86 % of control | dose: 100.0 mg/kg/injection, schedule: Q01DX Z (ip), vehicle: saline 88 % of control | dose: 200.0 mg/kg/injection, schedule: Q01DX Z (ip), vehicle: saline 90 % of control

O=[N+]([O-])c1cccc(/C=C/c2ccc(S(=O)(=O)F)cc2)c1
inactive: [2] 95 % of control | [3] 90 % of control

Nc1cccc(OCCCOc2ccccc2)c1
inactive: [11] 94 % of control | [12] 97 % of control | [13] 94 % of control

C=CCCCCCCCCCC(CCCCCC)C(=O)O (stereo not given)
inactive: dose: 100.0 mg/kg/injection, schedule: Q01DX001 (ip), vehicle: saline with Tween-80 101 % of control | dose: 200.0 mg/kg/injection, schedule: Q01DX001 (ip), vehicle: saline with Tween-80 111 % of control | dose: 400.0 mg/kg/injection, schedule: Q01DX001 (ip), vehicle: saline with Tween-80 92 % of control

CC(=O)OC1C2CCC(C2)C1C (stereo not given)
inactive: [1] 98 % of control | dose: 200.0 mg/kg/injection, schedule: Q01DX009 (ip), vehicle: saline with Tween-80 104 % of control | dose: 400.0 mg/kg/injection, schedule: Q01DX009 (ip), vehicle: saline with Tween-80 96 % of control

CCCCn1cnc2c(SSc3ncnc4c3ncn4CCCC)ncnc21
inactive: dose: 37.5 mg/kg/injection, schedule: Q01DX Z (ip), vehicle: saline 109 % of control | dose: 150.0 mg/kg/injection, schedule: Q01DX Z (ip), vehicle: saline 124 % of control | dose: 166.0 mg/kg/injection, schedule: Q04DX003 (ip), vehicle: gum acacia 121 % of control
